Measured values: patent publication US6569862B1, “Methods for treatment of disorders of cardiac contractility” (Johns Hopkins University, priority 1997, dated 2003)
Entries after “also recorded” stand apart in the source; their conditions may differ. Values belong to the compound of their own block, whether it stands above or below them.

Legend:
cardiac muscle = assay: steady-state analysis of calcium sensitivity (steady-state force versus steady-state [Ca2+]i); type: cell-based, rat; conditions: for effects on calcium sensitivity, comparison of the two agents: FIG. 4
Description: A particularly rigorous method of assessing calcium sensitivity is by steady-state analysis by procedures disclosed in Gao, W. D. et al., supra. […] That response represents defining characteristics of a calcium-sensitizing agent.

rat cardiac muscle = assay: in vitro calcium-sensitizing assay: contractile force and fura-2 [Ca2+]i in rat cardiac muscle
[1] = system: LV contractility in conscious dogs; assay: cardiac performance in conscious dogs before and after pacing-induced heart failure (pressure-dimension relations); type: in vivo; conditions: for PRSW (slope of stroke work/end-diastolic dimension relation): 200 mg infused over 30 minutes in the right atrium
Description: 1. Surgical preparation for chronic dog protocol. Male mongrel dogs (20-30 kg) were anesthetized with 1-2% halothane after induction with sodium pentothal. The chest was opened via a lateral thoracotomy, and indwelling catheters (Tygon; Norton Plastics and Synthetic Division) were secured in the right atrium (for drug infusion) and in the descending aorta (for pressure measurement). An indwelling high fidelity micromanometer (P22, Konigsberg Instruments) was placed in the left ventricle (LV) through an apical stab. […] Pacing leads were attached to the left atrium for acute pacing during experimentation, and epicardial leads for chronic pacing were attached to the right ventricular free wall and connected to a programmable pacemaker (Spectrax, Medtronics) within a subcutaneous pocket. The chest was closed in layers, catheters and leads were externalized to the mid-scapulae, and protected by an external jacket. Analgesia (morphine, 10 mg s.c.) was given in the immediate postoperative period as necessary. Antibiotics were administered for the first 72 hours after surgery. The dogs were allowed to recover fully for 7-10 postoperative days before experimentation. The surgical and experimental protocol was approved by Johns Hopkins School of Medicine Animal Care and Use Committee.
3. Heart failure was induced by chronic rapid ventricular pacing at a rate of 210 bpm for 3 weeks, followed by 240 bpm for one week. […] Acute pacing (140 bpm) was used to keep heart rate constant during the experiments.
a. The analysis of pressure-dimension relationships and the arterial pressure response allowed the evaluation of variables related to myocardial systolic and diastolic performance. […] Preload was indexed as the left ventricular end diastolic anterior -posterior short axis dimension (LVEDD) or the LV end-diastolic volume from the conductance catheter. Afterload was evaluated as effective arterial elastance (Ea, ratio of LV systolic pressure to stroke dimension (Kass, D. A. 1997, Myocardial Mechanics. In Heart Failure. P. Poole-Wilson et al., eds. Churchill Livingstone, New York. 87-108; Kelly, R. P., C. T. Ting, and T. M. Yang. 1992, Circulation 86:513-521). This parameter is not preload-dependent and has been validated to reflect total afterload, which incorporates systemic vascular resistance, aortic impedance, and the reflected wave properties of the vasculature. Contractility was indexed by +dP/dt and the load-independent parameter, preload-recruitable stroke work (PRSW; slope of stoke work/end-diastolic dimension relation) (Kass, D. A., 1986, Circulation 73:586-595). Diastolic performance was measured by peak −dP/dt, time to peak filling rate (ttpf), and the time constant of relaxation (tau). Tau was calculated using the method of Weiss and colleagues (Ingwall, J. S. 1993, Circulation 87:VII-58-VII-62.).
(§1) The ECG was continuously monitored.

[2] = value used for the dose extrapolation in 25 kg dogs; cited from earlier work
canine left ventricle = assay: cardiac energetics (O2 consumption, mechanical efficiency) in anesthetized control and heart failure dogs; type: in vivo
Protocol: 3. Heart failure was induced by chronic rapid ventricular pacing at a rate of 210 bpm for 3 weeks, followed by 240 bpm for one week. This brought the dogs into heart failure with an average left ventricular end-diastolic pressure (LVEDP) of 23.5∀5.2 mm Hg. Acute pacing (140 bpm) was used to keep heart rate constant during the experiments.
b. Oxygen consumption per unit time (MVO2) in the left circumflex artery territory was calculated from the difference in oxygen saturation in simultaneously sampled coronary sinus and aortic blood, multiplied by left circumflex coronary blood flow. This, in turn, was calculated from flow velocity multiplied by left circumflex diameter. Left circumflex diameter was analyzed from a film projector (CAP 35B, Angiogram Projection System) using quantitative angiography (Cath View v1.36, Image Comm Systems).
c. The external useful work of the LV was indexed as stroke work (SW=area of pressure-volume loops). Both stroke SW and MVO2 were converted to Joules per beat (Suga, H. et al. 1983, Circ. Res. 53:306-318). Cardiac mechanical efficiency was calculated as SW/MVO2. Hemodynamic pressure-dimension data were digitized at 200 Hz and stored for subsequent analysis on a personal computer using customized software.
Isoflurane was chosen as the anesthetic because of its relatively mild and stable effect on the cardiovascular system (R M. Jones, British Journal of Anaesthesia, 56 Suppl 1:57S-69S (1984); E. I. Eger, British Journal of Anaesthesia, 56 Suppl 1:71S-99S (1984)). A doppler flow velocimeter (0.014 Cardiometrics) and a 6 Fr. angiography catheter (AL-I or JL 3.5, Cordis Laboratories Inc) were inserted through an 8 Fr sheath (Cordis) in the right femoral artery and advanced to the left circumflex coronary artery. These catheters permitted measurement of coronary flow and injection of contrast for the measurement of coronary diameter. A catheter (A2 multipurpose, 6 Fr.) was advanced from the left external jugular vein via a 7 Fr. sheath (Cordis) into the great cardiac vein for withdrawal of mixed coronary venous blood. To measure cardiac oxygen consumption, blood samples from the coronary sinus and the femoral artery were obtained simultaneously. At each time point, blood flow velocity in the left circumflex artery was measured and coronary angiography was performed.
In 4 of 11 experiments, preexisting indwelling sonomicrometer crystals, Konigsberg micromanometers, and IVC occluders (see above) were used for dimension and pressure measurements, and for acute preload reduction. In the other 7 experiments, a combined micromanometer-conductance catheter (M!illar) was advanced to the LV and positioned for continuous measurement of LV pressure and volume via a 7 Fr. sheath (Cordis) in the femoral artery. A Swan-Ganz catheter (Arrow, 7 Fr.) was advanced via a 9F sheath in the femoral vein to the pulmonary artery for measurement of cardiac output and for hypertonic saline wash-in (Baan, J., E. van der Velde, A. D. van Dijk and et al. 1992, In Cardiovascular system dynamics: Models and measurements. Anonymous Plenum Press, New York, 569; Kass, D. A. et al. 1986. Circulation 73:586-595) to calibrate the volume signal. This catheter was then replaced with a balloon occlusion catheter (Cordis) positioned in the IVC for acute preload reduction for pressure-volume analysis.
A combined manometer-conductance catheter was positioned in the left ventricle for continuous measurement of volume and pressures in the ventricle and aorta. Volume was calibrated with measurement of cardiac output and hypertonic saline wash-in. In addition, dogs were acutely instrumented a doppler flow velocimeter probe and an angiography catheter in the left circumflex coronary artery to measure coronary flow velocity and coronary diameter. […]

phosphodiesterase = conditions: stated as well established; cited from earlier work
[3] = plasma level estimate in 25 kg dogs; type: in vivo; conditions: 200 mg i.v. in 25 kg dogs
Description: as §1

[4] = after a standard dose (300 mg p.o.); cited from earlier work

SMILES: Oc1nc(O)c2cn[nH]c2n1 [oxypurinol, 4,6-dihydroxypyrazolo[3,4-d]pyrimidine]
- effects on calcium sensitivity, comparison of the two agents (cardiac muscle): essentially indistinguishable effects on calcium sensitivity
- force at any given [Ca2+]i (cardiac muscle; treated versus control muscles, FIG. 3): generate more force at any given [Ca^2+]i than control muscles

- plasma level estimated to be attained [3]: 4500 ng/mL
SMILES: Oc1ncnc2[nH]ncc12 [allopurinol, 4-hydroxy-pyrazolo[3,4-d]pyrimidine]
- calcium ion concentration ([Ca2+]i) (rat cardiac muscle; fura-2, FIG. 1): decreasing calcium ion concentration
- contractile force (rat cardiac muscle; relative to control not exposed, FIG. 1): increases contractile force
- effect on healthy dogs ([1]; acted only in dogs with heart failure): did not adversely affect healthy dogs
- PRSW (slope of stroke work/end-diastolic dimension relation) ([1]; after pacing-induced heart failure): increased the slope after heart failure
- change of (dP/dt)max at the peak response ([1]; control dogs (n=10), 10 min after end of infusion, p=0.01): +8.3±3.2%
- (dP/dt)max at the peak response ([1]; control dogs (n=10), 10 min after end of infusion, base line value 3101±162): 3373±225 mm Hg/s
- PRSW (slope of stroke work/end-diastolic dimension relation) ([1]; control dogs): did not affect the slope of the PRSW relation; also recorded: not significantly changed
- effect on diastolic function ([1]; in vivo use, dogs): no adverse effect on diastolic function
- distribution volume [2]: 1.6 L/kg
- oxygen utilization (canine left ventricle; failing canine left ventricle, 200 mg iv): decreases oxygen utilization
- myocardial arterio-venous oxygen difference (canine left ventricle; heart failure dogs, 200 mg iv): not changed
- change in left circumflex blood flow (canine left ventricle; heart failure dogs, 10 min post-infusion of 200 mg iv over 30 minutes, p=0.0015): −40±6%
- phosphodiesterase inhibition (phosphodiesterase): no phosphodiesterase inhibition
- plasma levels achieved in humans [4]: 3000 to 9000 ng/mL
- effects on calcium sensitivity, comparison of the two agents (cardiac muscle): essentially indistinguishable effects on calcium sensitivity
- maximal force (cardiac muscle; steady-state analysis, FIG. 2): increased maximal force
- contractile activation curve (steady-state force vs steady-state [Ca2+]i) (cardiac muscle; versus control muscles exposed to no drug, FIG. 2): shifted the contractile activation curve to lower [Ca^2+]i

SMILES: CC(CCc1ccc(O)cc1)NCCc1ccc(O)c(O)c1 (centres unmarked) [dobutamine]
- increase of oxygen consumption (canine left ventricle; heart failure dogs, infusion 10 μg/Kg/min, p=0.007): 145±53.0%
- change of SW/MVO2 (canine left ventricle; heart failure dogs, infusion 10 μg/Kg/min, p=0.05): −29.3±6.8%
- mechanical efficiency (canine left ventricle; heart failure dogs, infusion 10 μg/Kg/min, FIG. 9): significant decrease in mechanical efficiency
